# Test results reported in paper PMC6286365 (Scientific Reports, 2018).
# Where two headings read alike, the source gives them in different places.
# Key:
# nSMase2 [1] = settings: cited from earlier work
# [2] = cited from earlier work
# [3] = cited from earlier work; remark: listed apart in the source
# nSMase2 [4] = system: nSMase2; design: method as in PMID 28377412; settings: co-injection with IL-1β; cited from earlier work
# human nSMase2 = target: T1, human nSMase2 (Homo sapiens, UniProt Q9NY59); test: biochemical
# T1 sequence (Q9NY59 1-655): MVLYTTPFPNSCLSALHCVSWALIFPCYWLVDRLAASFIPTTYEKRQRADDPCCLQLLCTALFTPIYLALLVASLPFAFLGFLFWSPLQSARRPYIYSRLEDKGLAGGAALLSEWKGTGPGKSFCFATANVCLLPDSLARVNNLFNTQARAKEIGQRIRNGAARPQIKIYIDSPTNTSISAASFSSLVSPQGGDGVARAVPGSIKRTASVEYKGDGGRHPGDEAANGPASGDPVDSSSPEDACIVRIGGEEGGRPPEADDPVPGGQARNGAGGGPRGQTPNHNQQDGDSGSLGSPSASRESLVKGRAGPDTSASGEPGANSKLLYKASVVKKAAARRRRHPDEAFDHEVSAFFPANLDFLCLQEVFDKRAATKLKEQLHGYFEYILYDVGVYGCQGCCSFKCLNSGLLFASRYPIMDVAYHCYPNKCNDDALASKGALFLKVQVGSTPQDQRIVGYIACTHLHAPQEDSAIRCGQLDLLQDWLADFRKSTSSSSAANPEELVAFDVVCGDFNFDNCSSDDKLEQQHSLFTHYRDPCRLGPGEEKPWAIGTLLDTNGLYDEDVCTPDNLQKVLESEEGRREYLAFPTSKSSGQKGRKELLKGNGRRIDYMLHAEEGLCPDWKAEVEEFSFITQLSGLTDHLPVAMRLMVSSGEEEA
# GFAP-GFP mice = test: Striatal IL-1β brain inflammation model: GFP-labeled astrocyte-derived EVs in plasma; type: in vivo, mouse; settings: 10 mg/kg IP 0.5 h before IL-1β, 2 h post IL-1β
# Method: As we have previously shown[11],[18], striatal injection of IL-1β in mice expressing GFP-GFAP in astroglia triggers a release of GFP-labelled EVs that rapidly enter into plasma, resulting in cytokine upregulation in liver and peripheral immune cell migration into brain[11]. […] There were two groups of mice: the first group was sacrificed 2 h after IL-1β administration by heart puncture, and GFP-labeled circulating EVs were measured with liver cytokines. […] Counting of astrocyte-released EV (GFP+) from blood and liver cytokine analysis was conducted by single injection of DPTIP. Although release of EVs from astrocytes can be initiated immediately after intracranial injection of IL-1β, infiltration of neutrophils in brain parenchyma occurred 12h-24h after the IL-1β injection. […] Western analysis using the isolated exosomal fraction confirmed the presence of CD63 (transmembrane protein), TSG101 (cytosolic protein) and Flotilin-1 (lipid raft associated protein), commonly used EV markers[19],[20]. The GFP signal was an indication that these EVs originated in brain[11] while lack of mitofilin and α-actinin signals indicated the vesicles were not of mitochondrial[21] or cytoskeletal[22] origin respectively (Fig. 6B).
# Compounds were given 0.5 h before IL-1β dosing. One group of mice was sacrificed 2 h after IL-1β administration to determine effects of the various treatments on extracellular vesicles (EVs) releases from brain and liver cytokine analysis. […] (C) Liver cytokine levels under different treatments as measured by qRT-PCR of RNA isolated from fresh frozen liver tissue. Samples were analyzed in triplicate. **p < 0.01 and *p < 0.05 compared to saline control; ^##p < 0.01 and ^#p < 0.05 compared to IL1-β group. (D) Neutrophil levels in brain as measured by immunohistochemistry using coronal brain sections and Ly6b antibody. (E) Quantitation of (D); **p < 0.01 compared to saline control; ^##p < 0.01 compared to IL1-β group. […]
# primary astrocytes = test: Inhibition of EV release from primary astrocytes (FBS withdrawal, nanoparticle tracking); type: cell-based, rat; settings: 2 h treatment, dose range of concentrations
# Method: (§1) Independent laboratories have shown that pharmacological and genetic inhibition of nSMase2 blocks EV secretion from glial cells. […] Two hours after treatment, EVs were isolated from the media and quantified by nanoparticle tracking analysis. […] Cells were fixed and immunofluorescence labeling for GFAP was performed.
# (§2) Media was collected after 2 h incubation and centrifuged at 2700 × g for 15 min at 4 °C. Supernatant was collected and the number of extracellular vesicles (EVs) was quantified using ZetaView Nanoparticle Tracker. The mean concentration of EVs/mL (±SEM) was calculated from 4 replicate experiments. […] Astrocytes grown in complete medium were used as no treatment control. Cells were fixed and stained with anti-GFAP antibody (1:500, Sigma). Fluorescence intensity was measured using Image J. (C) Quantitation of fluorescence in (B). Bar graph represents background corrected mean fluorescence intensity measured from 100 astrocytes per condition. Error bars represent standard error of mean. One-way ANOVA followed by Tukey’s posthoc test was performed.
# Potential inhibition of test compounds on EV release from primary astrocytes was carried out as previously described (Dickens et al., 2017). Briefly, rat primary astrocytes were seeded onto 6-well plates at a density of 20,000 cells/well. Twenty-four hours after seeding, astrocytes were washed with PBS and the medium changed to media without FBS. Absence of FBS mimics a trophic factor withdrawal stimulus causing EVs to be released from astrocytes via an nSMase2-dependent pathway. […] The supernatant was collected and the number of EVs quantified using ZetaView Nanoparticle Tracker (Particle Metrix GmBH, Meerbusch, Germany) and the corresponding ZetaVeiw software (8.03.04.01). Nanosphere size standard 100 nm (Thermo Scientific) was used to calibrate the instrument prior to sample readings. […] For each sample 1 mL of the supernatant was injected into the sample-carrier cell and the particle count measured at 5 positions, with 2 cycles of reading per position. […] Mean concentration of EVs/mL (±SEM) was calculated from 4 replicates.
# Rat primary astrocytes = test: Astrocyte activation, GFAP immunofluorescence (+/-) serum deprivation; type: cell-based; settings: 10 μM, 2 h
# Method: as §1, §2
structure (smiles),measurement,setting,value
O=c1[nH]c(=S)[nH]c(-c2ccccc2)c1Cc1c(O)ccc2ccccc12 [Cambinol],IC50,nSMase2 [1],[…]
same,in vivo pharmacokinetic profile,[2],poor in vivo pharmacokinetic profile
same,metabolic stability,[3],metabolically unstable
COc1ccc(S(=O)(=O)N(C(=O)C(C)C)c2ccc3oc(=O)sc3c2)cc1 [MLS000521532],IC50,human nSMase2,10 µM
COc1ccc(NC2CCCN(C(=O)CCc3ccccc3F)C2)cc1 (centres unmarked) [MLS001002546],IC50,human nSMase2,10 µM
COc1cc(O)c(C(=O)O)c(-c2cc(O)c(O)cc2C)c1 [altenusin],effect on neutrophil infiltration into brain parenchyma,nSMase2 [4],suppress neutrophil infiltration
COc1cc(OC)cc(-c2nc(-c3cccs3)c(-c3ccccc3)[nH]2)c1 [des-hydroxyl analog],effect on IL-1β-induced EV release,GFAP-GFP mice,no difference
same,effect on IL-1β-induced EV release,GFAP-GFP mice; listed as inactive analog,no statistically significant effect
same,effect on EV release from primary astrocytes,primary astrocytes; listed as des hydroxyl inactive analog of DPTIP,did not inhibit EV release
same,effect on EV release from primary astrocytes,primary astrocytes; listed as inactive analog,no effect on EV release
same,effect on GFAP levels without serum starvation,Rat primary astrocytes; no serum starvation,did not change GFAP levels
same,effect on astrocyte activation (GFAP) in response to serum starvation,Rat primary astrocytes; with serum deprivation,failed to prevent astrocyte activation
